Literature values, collected in patent US20260355183A1, “METHODS OF TREATING HEPATIC-ONLY METASTATIC UVEAL MELANOMA” (IDEAYA BIOSCIENCES, INC., priority 2023, published 2026).

Tests used:
[1] = test system: ocular melanoma liver metastases; conditions: in vivo
[2] = test system: certain PKC isototypes; conditions: background statement
[3] = test system: uveal melanoma cells harboring GNAQ mutations; conditions: by targeting PKC/ERK1/2 and PKC/NF-xB pathways; X. Wu et al., Mol. Cancer Ther. 11, 1905-1914, 2012

Row | SMILES | DCR [1] [%] | activity against PKC isotypes [2] | inhibition of growth of uveal melanoma cells harboring GNAQ mutations [3]
1 | N[C@@H](Cc1ccc(N(CCCl)CCCl)cc1)C(=O)O [melphalan] | 76.3 | – | –
2 | CN1CCN(c2nc(C3=C(c4c[nH]c5ccccc45)C(=O)NC3=O)c3ccccc3n2)CC1 [sotrastaurin] | – | activity against certain PKC isototypes | selectively inhibit the growth of uveal melanoma cells harboring GNAQ mutations
